{"source": "patent US20250051356A1", "about": "“RIFABUTIN ANALOGS FOR THE TREATMENT OF DISEASE” (priority 2021, published 2025)", "assay_type_in_all_cases": "cell-based", "key": {"[1]": {"test_system": "A. baumannii (HUMC1 strain)", "assay": "MIC by broth microdilution against A. baumannii in RPMI + 10% FCS", "conditions": "Acinetobacter baumannii, read-out: MIC A. baumannii"}, "M. xenopi (ATCC 19250)": {"test_system": "M. xenopi (ATCC 19250)", "assay": "MIC against M. xenopi in CAMHB + ADC", "conditions": "Mycobacterium xenopi"}, "M. kansasii (ATCC 12478)": {"test_system": "M. kansasii (ATCC 12478)", "assay": "MIC against M. kansasii in CAMHB + ADC", "conditions": "Mycobacterium kansasii"}, "[2]": {"test_system": "S. aureus (UAMS-1625 strain)", "assay": "MIC by broth microdilution against S. aureus", "conditions": "Staphylococcus aureus, read-out: MIC S. aureus"}, "M. avium (ATCC 25291)": {"test_system": "M. avium (ATCC 25291)", "assay": "MIC against M. avium in CAMHB + ADC", "conditions": "Mycobacterium avium"}, "[3]": {"test_system": "M. abscessus subsp. abscessus ATCC 19977", "assay": "MIC against M. abscessus in Middlebrook 7H9 + ADC", "conditions": "Mycobacteroides abscessus"}, "[4]": {"conditions": "ATCC19250, ATCC 19250, CAMHB + ADC (5%), read-out: MIC M. xenopi"}, "[5]": {"conditions": "ATCC12478, ATCC 12478, CAMHB + ADC (5%), read-out: MIC M. kansasii"}, "[6]": {"conditions": "ATCC25291, ATCC 25291, CAMHB + ADC (5%), read-out: MIC M. avium"}, "[7]": {"conditions": "ATCC19977, ATCC 19977, 7H9 + ADC, read-out: MIC M. abscessus"}, "[8]": {"conditions": "ATCC19250, read-out: MIC M. xenopi"}, "[9]": {"conditions": "ATCC12478, read-out: MIC M. kansasii"}, "[10]": {"conditions": "ATCC25291, read-out: MIC M. avium"}, "[11]": {"conditions": "ATCC19977, read-out: MIC M. abscessus"}}, "note": "Read-outs that look alike come from different tables or passages of the source.", "data": [{"smiles": "CO[C@H]1/C=C/O[C@@]2(C)Oc3c(C)c(O)c4c(c3C2=O)C2=NC3(CCN(CC(C)C)CC3)NC2=C(NC(=O)/C(C)=C\\C=C\\[C@H](C)[C@H](O)[C@@H](C)[C@@H](O)[C@@H](C)[C@H](OC(=O)CC(=O)N2CCN(c3ccccn3)CC2)[C@@H]1C)C4=O", "note": "[Compound 99]", "values": [{"measurement": "MIC", "setting": "[1]; HUMC1 strain, RPMI + 10% FCS", "result": 0.008, "unit": "µg/mL"}, {"measurement": "MIC", "setting": "M. xenopi (ATCC 19250); [4]", "result": 0.125, "unit": "µg/mL"}, {"measurement": "MIC", "setting": "M. kansasii (ATCC 12478); [5]", "result": 0.004, "unit": "µg/mL"}, {"measurement": "MIC", "setting": "[2]", "result": 0.06, "unit": "µg/mL"}, {"measurement": "MIC", "setting": "M. avium (ATCC 25291); [6]", "result": 0.125, "unit": "µg/mL"}, {"measurement": "MIC", "setting": "[3]; [7]", "result": 0.25, "unit": "µg/mL"}]}, {"smiles": "CO[C@H]1/C=C/OC2(C)Oc3c(C)c(O)c4c(c3C2=O)C2=NC3(CCN(CC(C)C)CC3)NC2=C(NC(=O)/C(C)=C\\C=C\\[C@H](C)[C@H](O)[C@@H](C)[C@@H](O)[C@@H](C)[C@H](OC(=O)CC(=O)N2CCC(c3ccccc3)CC2)[C@@H]1C)C4=O", "note": "(stereo partly drawn) [Compound 101]", "values": [{"measurement": "MIC", "setting": "[1]", "result": 0.06, "unit": "µg/mL"}, {"measurement": "MIC", "setting": "M. xenopi (ATCC 19250); [8]", "result": 0.03, "unit": "µg/mL"}, {"measurement": "MIC", "setting": "M. kansasii (ATCC 12478); [9]", "result": 0.002, "unit": "µg/mL"}, {"measurement": "MIC", "setting": "[2]", "result": 0.5, "unit": "µg/mL"}, {"measurement": "MIC", "setting": "M. avium (ATCC 25291); [10]", "result": 0.03, "unit": "µg/mL"}, {"measurement": "MIC", "setting": "[3]; [11]", "result": 0.125, "unit": "µg/mL"}]}, {"smiles": "CO[C@H]1/C=C/OC2(C)Oc3c(C)c(O)c4c(c3C2=O)C2=NC3(CCN(CC(C)C)CC3)NC2=C(NC(=O)/C(C)=C\\C=C\\[C@H](C)[C@H](O)[C@@H](C)[C@@H](O)[C@@H](C)[C@H](OC(=O)CC(=O)N2C3CCC2CC(c2ccccc2)C3)[C@@H]1C)C4=O", "note": "(stereo partly drawn) [Compound 102]", "values": [{"measurement": "MIC", "setting": "[1]", "result": 0.03, "unit": "µg/mL"}, {"measurement": "MIC", "setting": "M. xenopi (ATCC 19250); [8]", "result": 0.06, "unit": "µg/mL"}, {"measurement": "MIC", "setting": "M. kansasii (ATCC 12478); [9]", "result": 0.008, "unit": "µg/mL"}, {"measurement": "MIC", "setting": "[2]", "result": 0.5, "unit": "µg/mL"}, {"measurement": "MIC", "setting": "M. avium (ATCC 25291); [6]", "result": 0.03, "unit": "µg/mL"}, {"measurement": "MIC", "setting": "[3]; [11]", "result": 0.25, "unit": "µg/mL"}]}, {"smiles": "CO[C@H]1/C=C/O[C@@]2(C)Oc3c(C)c(O)c4c(c3C2=O)C2=NC3(CCN(CC(C)C)CC3)NC2=C(NC(=O)/C(C)=C\\C=C\\[C@H](C)[C@H](O)[C@@H](C)[C@@H](O)[C@@H](C)[C@H](OC(=O)CC(=O)N2CCC(c3ccncc3)CC2)[C@@H]1C)C4=O", "note": "[Compound 104]", "values": [{"measurement": "MIC", "setting": "[1]; HUMC1 strain, RPMI + 10% FCS", "result": 0.004, "unit": "µg/mL"}, {"measurement": "MIC", "setting": "M. xenopi (ATCC 19250); [4]", "result": 0.125, "unit": "µg/mL"}, {"measurement": "MIC", "setting": "M. kansasii (ATCC 12478); [5]", "result": 0.004, "unit": "µg/mL"}, {"measurement": "MIC", "setting": "[2]", "result": 0.06, "unit": "µg/mL"}, {"measurement": "MIC", "setting": "M. avium (ATCC 25291); [6]", "result": 0.25, "unit": "µg/mL"}, {"measurement": "MIC", "setting": "[3]; [7]", "result": 0.25, "unit": "µg/mL"}]}, {"smiles": "CO[C@H]1/C=C/O[C@@]2(C)Oc3c(C)c(O)c4c(c3C2=O)C2=NC3(CCN(CC(C)C)CC3)NC2=C(NC(=O)/C(C)=C\\C=C\\[C@H](C)[C@H](O)[C@@H](C)[C@@H](O)[C@@H](C)[C@H](OC(=O)CC(=O)N2CCC(Nc3ccc(C)cc3)CC2)[C@@H]1C)C4=O", "note": "[Compound 105]", "values": [{"measurement": "MIC", "setting": "[1]", "result": 0.06, "unit": "µg/mL"}, {"measurement": "MIC", "setting": "M. xenopi (ATCC 19250); [8]", "result": 0.03, "unit": "µg/mL"}, {"measurement": "MIC", "setting": "M. kansasii (ATCC 12478); [9]", "result": 0.004, "unit": "µg/mL"}, {"measurement": "MIC", "setting": "[2]", "result": 0.25, "unit": "µg/mL"}, {"measurement": "MIC", "setting": "M. avium (ATCC 25291); [10]", "result": 0.125, "unit": "µg/mL"}, {"measurement": "MIC", "setting": "[3]; [11]", "result": 0.25, "unit": "µg/mL"}]}, {"smiles": "COc1cc(NC2CCN(C(=O)CC(=O)O[C@H]3[C@H](C)[C@H](O)[C@H](C)[C@@H](O)[C@@H](C)/C=C/C=C(/C)C(=O)NC4=C5NC6(CCN(CC(C)C)CC6)N=C5c5c(c(O)c(C)c6c5C(=O)[C@@](C)(O/C=C/[C@H](OC)[C@H]3C)O6)C4=O)CC2)cc(OC)c1", "note": "[Compound 106]", "values": [{"measurement": "MIC", "setting": "[1]; HUMC1 strain, RPMI + 10% FCS", "result": 0.008, "unit": "µg/mL"}, {"measurement": "MIC", "setting": "M. xenopi (ATCC 19250); [4]", "result": 0.125, "unit": "µg/mL"}, {"measurement": "MIC", "setting": "M. kansasii (ATCC 12478); [5]", "result": 0.03, "unit": "µg/mL"}, {"measurement": "MIC", "setting": "[2]", "result": 0.25, "unit": "µg/mL"}, {"measurement": "MIC", "setting": "M. avium (ATCC 25291); [6]", "result": 0.5, "unit": "µg/mL"}, {"measurement": "MIC", "setting": "[3]; [7]", "result": 0.25, "unit": "µg/mL"}]}, {"smiles": "CO[C@H]1/C=C/O[C@@]2(C)Oc3c(C)c(O)c4c(c3C2=O)C2=NC3(CCN(CC(C)C)CC3)NC2=C(NC(=O)/C(C)=C\\C=C\\[C@H](C)[C@H](O)[C@@H](C)[C@@H](O)[C@@H](C)[C@H](OC(=O)CC(=O)N2CCC(Nc3ccccc3C#N)CC2)[C@@H]1C)C4=O", "note": "[Compound 107]", "values": [{"measurement": "MIC", "setting": "[1]", "result": 0.5, "unit": "µg/mL"}, {"measurement": "MIC", "setting": "M. xenopi (ATCC 19250); [8]", "result": 0.06, "unit": "µg/mL"}, {"measurement": "MIC", "setting": "M. kansasii (ATCC 12478); [9]", "result": 0.016, "unit": "µg/mL"}, {"measurement": "MIC", "setting": "[2]", "result": 0.25, "unit": "µg/mL"}, {"measurement": "MIC", "setting": "M. avium (ATCC 25291); [10]", "result": 0.125, "unit": "µg/mL"}, {"measurement": "MIC", "setting": "[3]; [11]", "result": 0.125, "unit": "µg/mL"}]}, {"smiles": "CO[C@H]1/C=C/O[C@@]2(C)Oc3c(C)c(O)c4c(c3C2=O)C2=NC3(CCN(CC(C)C)CC3)NC2=C(NC(=O)/C(C)=C\\C=C\\[C@H](C)[C@H](O)[C@@H](C)[C@@H](O)[C@@H](C)[C@H](OC(=O)C(C)C(=O)N2CCCN(c3ccc(F)cc3)CC2)[C@@H]1C)C4=O", "note": "(stereo partly drawn) [Compound 108]", "values": [{"measurement": "MIC", "setting": "[1]; HUMC1 strain, RPMI + 10% FCS", "result": 0.06, "unit": "µg/mL"}, {"measurement": "MIC", "setting": "M. xenopi (ATCC 19250); [4]", "result": 0.06, "unit": "µg/mL"}, {"measurement": "MIC", "setting": "M. kansasii (ATCC 12478); [5]", "result": 0.008, "unit": "µg/mL"}, {"measurement": "MIC", "setting": "[2]", "result": 0.25, "unit": "µg/mL"}, {"measurement": "MIC", "setting": "M. avium (ATCC 25291); [6]", "result": 0.25, "unit": "µg/mL"}, {"measurement": "MIC", "setting": "[3]; [7]", "result": 0.25, "unit": "µg/mL"}]}, {"smiles": "CO[C@H]1/C=C/O[C@@]2(C)Oc3c(C)c(O)c4c(c3C2=O)C2=NC3(CCN(CC(C)C)CC3)NC2=C(NC(=O)/C(C)=C\\C=C\\[C@H](C)[C@H](O)[C@@H](C)[C@@H](O)[C@@H](C)[C@H](OC(=O)CC(=O)N2CCC(Nc3cccnc3)CC2)[C@@H]1C)C4=O", "note": "[Compound 109]", "values": [{"measurement": "MIC", "setting": "[1]", "result": 0.004, "unit": "µg/mL"}, {"measurement": "MIC", "setting": "M. xenopi (ATCC 19250); [8]", "result": 0.25, "unit": "µg/mL"}, {"measurement": "MIC", "setting": "M. kansasii (ATCC 12478); [9]", "result": 0.03, "unit": "µg/mL"}, {"measurement": "MIC", "setting": "[2]", "result": 0.06, "unit": "µg/mL"}, {"measurement": "MIC", "setting": "M. avium (ATCC 25291); [10]", "result": 1, "unit": "µg/mL"}, {"measurement": "MIC", "setting": "[3]; [11]", "result": 0.25, "unit": "µg/mL"}]}, {"smiles": "CO[C@H]1/C=C/O[C@@]2(C)Oc3c(C)c(O)c4c(c3C2=O)C2=NC3(CCN(CC(C)C)CC3)NC2=C(NC(=O)/C(C)=C\\C=C\\[C@H](C)[C@H](O)[C@@H](C)[C@@H](O)[C@@H](C)[C@H](OC(=O)CC(=O)N2CCC(Nc3ccncc3Cl)CC2)[C@@H]1C)C4=O", "note": "[Compound 110]", "values": [{"measurement": "MIC", "setting": "[1]; HUMC1 strain, RPMI + 10% FCS", "result": 0.06, "unit": "µg/mL"}, {"measurement": "MIC", "setting": "M. xenopi (ATCC 19250); [8]", "result": 0.125, "unit": "µg/mL"}, {"measurement": "MIC", "setting": "M. kansasii (ATCC 12478); [5]", "result": 0.008, "unit": "µg/mL"}, {"measurement": "MIC", "setting": "[2]", "result": 0.125, "unit": "µg/mL"}, {"measurement": "MIC", "setting": "M. avium (ATCC 25291); [6]", "result": 0.25, "unit": "µg/mL"}, {"measurement": "MIC", "setting": "[3]; [11]", "result": 0.125, "unit": "µg/mL"}]}]}
